According to ChEMBL document CHEMBL1158870, “Antitumor agents. 180. Chemical Studies and cytotoxic evaluation of cumingianosides and cumindysoside A, antileukemic triterpene glucosides with a 14,18-cycloapotirucallane skeleton” (1997):

What was measured:
COLO 205 = assay: Cytotoxicity against human COLO205 cells by SRB assay; assay type: functional
HOP-62 = assay: Cytotoxicity against human HOP62 cells by SRB assay; assay type: functional
SR = assay: Cytotoxicity against human SR cells by SRB assay; assay type: functional
OVCAR-4 = assay: Cytotoxicity against human OVCAR4 cells by SRB assay; assay type: functional
MCF7 = assay: Cytotoxicity against human MCF7 cells by SRB assay; assay type: functional
NCI-H226 = assay: Cytotoxicity against human NCI-H226 cells by SRB assay; assay type: functional
[1] = Cytotoxicity against human prostate cancer cells by SRB assay; assay type: functional; settings: Cancer cell lines
MDA-MB-231 = assay: Cytotoxicity against human MDA-MB-231 cells by SRB assay; assay type: functional
SF-268 = assay: Cytotoxicity against human SF268 cells by SRB assay; assay type: functional
SK-MEL-28 = assay: Cytotoxicity against human SK-MEL-28 cells by SRB assay; assay type: functional
SNB-75 = assay: Cytotoxicity against human SNB75 cells by SRB assay; assay type: functional
ACHN = assay: Cytotoxicity against human ACHN cells by SRB assay; assay type: functional
HT-29 = assay: Cytotoxicity against human HT29 cells by SRB assay; assay type: functional
LOX IMVI = assay: Cytotoxicity against human LOXIMVI cells by SRB assay; assay type: functional
PC-3 = assay: Cytotoxicity against human PC3 cells by SRB assay; assay type: functional
RXF 393 = assay: Cytotoxicity against human RXF393 cells by SRB assay; assay type: functional
MDA-MB-435 = assay: Cytotoxicity against human MDA-MB-435 cells by SRB assay; assay type: functional
[2] = Cytotoxicity against human breast cancer cells by SRB assay; assay type: functional; settings: Cancer cell lines
SK-OV-3 = assay: Cytotoxicity against human SKOV3 cells by SRB assay; assay type: functional
[3] = Cytotoxicity against human 786-O cells by SRB assay; assay type: functional; settings: 786-0
A498 = assay: Cytotoxicity against human A498 cells by SRB assay; assay type: functional
OVCAR-5 = assay: Cytotoxicity against human OVCAR5 cells by SRB assay; assay type: functional
NCI-H23 = assay: Cytotoxicity against human NCI-H23 cells by SRB assay; assay type: functional
NCI-H322M = assay: Cytotoxicity against human NCI-H322M cells by SRB assay; assay type: functional
RPMI-8226 = assay: Cytotoxicity against human RPMI8226 cells by SRB assay; assay type: functional
M14 = assay: Cytotoxicity against human M14 cells by SRB assay; assay type: functional
[4] = Cytotoxicity against human ovarian cancer cells by SRB assay; assay type: functional; settings: Cancer cell lines
NCI-H522 = assay: Cytotoxicity against human NCI-H522 cells by SRB assay; assay type: functional
UACC-62 = assay: Cytotoxicity against human UACC62 cells by SRB assay; assay type: functional
CAKI-1 = assay: Cytotoxicity against human Caki1 cells by SRB assay; assay type: functional
SK-MEL-2 = assay: Cytotoxicity against human SK-MEL-2 cells by SRB assay; assay type: functional
A549 = assay: Cytotoxicity against human A549 cells by SRB assay; assay type: functional
OVCAR-8 = assay: Cytotoxicity against human OVCAR8 cells by SRB assay; assay type: functional
SW-620 = assay: Cytotoxicity against human SW620 cells by SRB assay; assay type: functional
CCRF-CEM = assay: Cytotoxicity against human CCRF-CEM cells by SRB assay; assay type: functional
MOLT-4 = assay: Cytotoxicity against human MOLT4 cells by SRB assay; assay type: functional
OVCAR-3 = assay: Cytotoxicity against human OVCAR-3 cells by SRB assay; assay type: functional
EKVX = assay: Cytotoxicity against human EKVX cells by SRB assay; assay type: functional
SN12C = assay: Cytotoxicity against human SN12C cells by SRB assay; assay type: functional
KM12 = assay: Cytotoxicity against human KM12 cells by SRB assay; assay type: functional
HCT-116 = assay: Cytotoxicity against human HCT116 cells by SRB assay; assay type: functional
[5] = Cytotoxicity against human melanoma cells by SRB assay; assay type: functional; settings: Melanoma cell
HCC 2998 = assay: Cytotoxicity against human HCC2998 cells by SRB assay; assay type: functional
U-251 = assay: Cytotoxicity against human U251 cells by SRB assay; assay type: functional
[6] = Cytotoxicity against human Hs 578T cells by SRB assay; assay type: functional
SNB-19 = assay: Cytotoxicity against human SNB19 cells by SRB assay; assay type: functional
[7] = Cytotoxicity against human CNS cancer cells by SRB assay; assay type: functional; settings: Cancer cell lines
UACC-257 = assay: Cytotoxicity against human UACC257 cells by SRB assay; assay type: functional
HCT-15 = assay: Cytotoxicity against human HCT15 cells by SRB assay; assay type: functional
[8] = Cytotoxicity against human MCF7/ADR cells by SRB assay; assay type: functional; settings: NCI/ADR-RES
NCI-H460 = assay: Cytotoxicity against human NCI-H460 cells by SRB assay; assay type: functional
[9] = Cytotoxicity against human renal cancer cells by SRB assay; assay type: functional; settings: Cancer cell lines
T47D = assay: Cytotoxicity against human T47D cells by SRB assay; assay type: functional
NSCLC = assay: Cytotoxicity against human NSCLC cells by SRB assay; assay type: functional
Malme-3M = assay: Cytotoxicity against human MALME-3M cells by SRB assay; assay type: functional
SK-MEL-5 = assay: Cytotoxicity against human SK-MEL-5 cells by SRB assay; assay type: functional
HOP-92 = assay: Cytotoxicity against human HOP92 cells by SRB assay; assay type: functional
UO-31 = assay: Cytotoxicity against human UO31 cells by SRB assay; assay type: functional
BT-549 = assay: Cytotoxicity against human BT549 cells by SRB assay; assay type: functional
IGROV-1 = assay: Cytotoxicity against human IGROV1 cells by SRB assay; assay type: functional
SF-295 = assay: Cytotoxicity against human SF295 cells by SRB assay; assay type: functional
[10] = Cytotoxicity against human HL60(TB) cells by SRB assay; assay type: functional, HL-60(TB); settings: HL-60
K562 = assay: Cytotoxicity against human K562 cells by SRB assay; assay type: functional
MDA-N = assay: Cytotoxicity against human MDA-N cells by SRB assay; assay type: functional
DU-145 = assay: Cytotoxicity against human DU145 cells by SRB assay; assay type: functional
Leukemia cell = assay: Cytotoxicity against human Leukemia cells by SRB assay; assay type: functional
[11] = Cytotoxicity against human Colon cancer cells by SRB assay; assay type: functional; settings: Cancer cell lines

CC(=O)OC[C@H]1O[C@@H](O[C@@H]2C[C@H]3C(C)(C)[C@H](OC(C)=O)CC[C@]3(C)[C@H]3CC[C@@H]4[C@]5(CC[C@@]4(C)[C@@]32C)O[C@@H]([C@H](O)C(C)(C)O)C[C@@H]5C)[C@H](O)[C@@H](O)[C@@H]1O
GI50 (COLO 205): 4.07 µM
TGI (COLO 205): 14.3 µM
GI50 (HOP-62): 14.1 µM
GI50 (SR): 3.09 µM
GI50 (OVCAR-4): 3.39 µM
GI50 (MCF7): 1.07 µM
GI50 (NCI-H226): 10.7 µM
TGI [1]: 18.5 µM
GI50 (MDA-MB-231): 10.2 µM
GI50 (SF-268): 9.33 µM
GI50 (SK-MEL-28): 10.2 µM
GI50 (SNB-75): 5.13 µM
GI50 (ACHN): 9.33 µM
GI50 (HT-29): 1.82 µM
TGI (HT-29): 4.3 µM
GI50 (LOX IMVI): 3.63 µM
GI50 (PC-3): 3.8 µM
GI50 (RXF 393): 4.07 µM
GI50 (MDA-MB-435): 8.32 µM
TGI [2]: 21.3 µM
GI50 (SK-OV-3): 7.94 µM
GI50 [3]: 8.71 µM
GI50 (A498): 11.7 µM
GI50 (OVCAR-5): 5.13 µM
GI50 (NCI-H23): 12.9 µM
GI50 (NCI-H322M): 1.7 µM
GI50 (RPMI-8226): 3.39 µM
GI50 (M14): 5.01 µM
TGI [4]: 20.1 µM
GI50 (NCI-H522): 7.08 µM
GI50 (UACC-62): 6.31 µM
GI50 (CAKI-1): 25.7 µM
GI50 (SK-MEL-2): 6.03 µM
GI50 (A549): 5.13 µM
GI50 (OVCAR-8): 9.33 µM
GI50 (SW-620): 10.5 µM
TGI (SW-620): 22.9 µM
GI50 (CCRF-CEM): 3.16 µM
GI50 (MOLT-4): 3.16 µM
GI50 (OVCAR-3): 7.08 µM
GI50 (EKVX): 9.55 µM
GI50 (SN12C): 11.2 µM
GI50 (KM12): 2 µM
TGI (KM12): 7.7 µM
GI50 (HCT-116): 3.8 µM
TGI (HCT-116): 15.1 µM
TGI [5]: 20.7 µM
GI50 (HCC 2998): 3.63 µM
TGI (HCC 2998): 15.9 µM
GI50 (U-251): 10.7 µM
GI50 [6]: 9.33 µM
GI50 (SNB-19): 12.6 µM
TGI [7]: 22.2 µM
GI50 (UACC-257): 11.5 µM
GI50 (HCT-15): 2.19 µM
TGI (HCT-15): 5.9 µM
GI50 [8]: 16.2 µM
GI50 (NCI-H460): 6.61 µM
TGI [9]: 20.5 µM
GI50 (T47D): 5.62 µM
TGI (NSCLC): 21.8 µM
GI50 (Malme-3M): 10.2 µM
GI50 (SK-MEL-5): 10.7 µM
GI50 (HOP-92): 10 µM
GI50 (UO-31): 7.76 µM
GI50 (BT-549): 12 µM
GI50 (IGROV-1): 9.55 µM
GI50 (SF-295): 6.46 µM
GI50 [10]: 2.95 µM
GI50 (K562): 4.47 µM
GI50 (MDA-N): 7.08 µM
GI50 (DU-145): 10.7 µM
TGI (Leukemia cell): 17.3 µM
TGI [11]: 12.3 µM
